Test results as given in ChEMBL document CHEMBL2424622, “Development of amino-pyrimidine inhibitors of c-Jun N-terminal kinase (JNK): kinase profiling guided optimization of a 1,2,3-benzotriazole lead” (Bioorg Med Chem Lett, 2013).

Tests used:
[1] = target: T1, Serine/threonine-protein kinase 3 (Homo sapiens) (UniProt Q13188); assay: Competitive binding affinity to STK3 (unknown origin) at 10 uM in presence of ATP relative to control
T1 sequence (whole entry): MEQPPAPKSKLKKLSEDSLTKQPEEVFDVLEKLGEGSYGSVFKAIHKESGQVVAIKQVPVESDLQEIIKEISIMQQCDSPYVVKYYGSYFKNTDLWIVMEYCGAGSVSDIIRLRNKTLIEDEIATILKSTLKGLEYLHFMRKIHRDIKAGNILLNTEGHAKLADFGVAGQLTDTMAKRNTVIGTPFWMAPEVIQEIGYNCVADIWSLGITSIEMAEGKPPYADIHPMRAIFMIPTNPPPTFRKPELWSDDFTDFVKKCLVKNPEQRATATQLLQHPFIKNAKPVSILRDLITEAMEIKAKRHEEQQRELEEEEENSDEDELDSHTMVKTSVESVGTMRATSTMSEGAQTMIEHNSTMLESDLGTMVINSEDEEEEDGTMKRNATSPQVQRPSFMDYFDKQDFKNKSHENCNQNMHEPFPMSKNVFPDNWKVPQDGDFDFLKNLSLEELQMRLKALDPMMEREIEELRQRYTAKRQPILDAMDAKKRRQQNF

[2] = target: Serine/threonine-protein kinase PLK1 (Homo sapiens) (UniProt P53350); assay: Competitive binding affinity to PLK1 (unknown origin) at 10 uM in presence of ATP relative to control
[3] = target: NT-3 growth factor receptor (Homo sapiens) (UniProt Q16288); assay: Competitive binding affinity to TRKC (unknown origin) at 10 uM in presence of ATP relative to control
[4] = target: T2, Activin receptor type-1 (Homo sapiens) (UniProt Q04771); assay: Competitive binding affinity to ACVR1 (unknown origin) at 10 uM in presence of ATP relative to control
T2 sequence (whole entry): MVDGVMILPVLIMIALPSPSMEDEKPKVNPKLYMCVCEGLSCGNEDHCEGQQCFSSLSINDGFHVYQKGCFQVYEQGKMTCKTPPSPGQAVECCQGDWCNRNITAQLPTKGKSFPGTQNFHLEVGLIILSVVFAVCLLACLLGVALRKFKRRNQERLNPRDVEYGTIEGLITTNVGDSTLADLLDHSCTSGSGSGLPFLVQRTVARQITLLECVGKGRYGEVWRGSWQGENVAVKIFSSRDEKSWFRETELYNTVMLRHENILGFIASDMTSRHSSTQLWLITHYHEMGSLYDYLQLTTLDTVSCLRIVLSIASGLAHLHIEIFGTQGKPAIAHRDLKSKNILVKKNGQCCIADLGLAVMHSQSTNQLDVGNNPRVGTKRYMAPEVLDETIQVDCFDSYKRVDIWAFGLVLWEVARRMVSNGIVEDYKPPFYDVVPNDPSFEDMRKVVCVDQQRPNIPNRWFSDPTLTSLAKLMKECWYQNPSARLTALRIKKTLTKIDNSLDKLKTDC

[5] = target: T3, Serine/threonine-protein kinase 17B (Homo sapiens) (UniProt O94768); assay: Competitive binding affinity to STK17B (unknown origin) at 10 uM in presence of ATP relative to control
T3 sequence (whole entry): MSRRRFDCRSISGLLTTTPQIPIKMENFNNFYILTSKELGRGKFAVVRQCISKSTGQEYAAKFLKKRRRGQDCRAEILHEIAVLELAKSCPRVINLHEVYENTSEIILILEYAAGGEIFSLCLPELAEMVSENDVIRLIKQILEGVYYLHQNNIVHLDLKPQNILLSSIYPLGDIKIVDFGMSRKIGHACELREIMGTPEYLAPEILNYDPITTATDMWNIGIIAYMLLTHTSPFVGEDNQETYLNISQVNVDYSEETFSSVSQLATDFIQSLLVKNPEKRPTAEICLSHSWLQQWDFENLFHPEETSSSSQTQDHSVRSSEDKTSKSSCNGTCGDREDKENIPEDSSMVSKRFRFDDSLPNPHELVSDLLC

[6] = target: Cyclin-dependent kinase 3 (Homo sapiens) (UniProt Q00526); assay: Competitive binding affinity to CDK3 (unknown origin) at 10 uM in presence of ATP relative to control
[7] = target: Cyclin-dependent kinase 8 (Homo sapiens) (UniProt P49336); assay: Competitive binding affinity to CDK8 (unknown origin) at 10 uM in presence of ATP relative to control
[8] = target: T4, Serine/threonine-protein kinase D3 (Homo sapiens) (UniProt O94806); assay: Competitive binding affinity to PRKD3 (unknown origin) at 10 uM in presence of ATP relative to control
T4 sequence (whole entry): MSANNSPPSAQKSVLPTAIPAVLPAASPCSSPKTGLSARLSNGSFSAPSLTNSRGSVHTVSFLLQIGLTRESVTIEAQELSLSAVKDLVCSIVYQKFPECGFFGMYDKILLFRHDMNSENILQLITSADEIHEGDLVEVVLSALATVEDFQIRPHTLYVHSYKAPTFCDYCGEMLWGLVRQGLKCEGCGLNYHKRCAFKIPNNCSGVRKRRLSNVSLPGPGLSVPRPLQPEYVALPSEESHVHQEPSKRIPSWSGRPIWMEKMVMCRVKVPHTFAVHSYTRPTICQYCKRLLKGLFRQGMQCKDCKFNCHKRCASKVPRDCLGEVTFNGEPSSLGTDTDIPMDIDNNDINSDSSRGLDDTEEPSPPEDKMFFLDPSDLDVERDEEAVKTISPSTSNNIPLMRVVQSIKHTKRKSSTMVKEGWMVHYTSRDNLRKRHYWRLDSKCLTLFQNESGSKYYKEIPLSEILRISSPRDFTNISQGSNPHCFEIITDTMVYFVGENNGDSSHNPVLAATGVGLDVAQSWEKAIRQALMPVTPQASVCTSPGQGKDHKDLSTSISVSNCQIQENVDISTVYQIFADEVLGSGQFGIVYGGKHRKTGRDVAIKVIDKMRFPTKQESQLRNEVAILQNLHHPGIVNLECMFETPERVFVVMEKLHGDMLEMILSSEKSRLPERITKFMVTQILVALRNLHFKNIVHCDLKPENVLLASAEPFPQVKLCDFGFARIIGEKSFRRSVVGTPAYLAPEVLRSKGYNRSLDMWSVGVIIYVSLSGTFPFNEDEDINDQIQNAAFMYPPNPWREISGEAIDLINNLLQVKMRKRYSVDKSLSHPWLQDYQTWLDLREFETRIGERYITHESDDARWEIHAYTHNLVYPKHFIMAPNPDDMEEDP

[9] = target: Dual specificity mitogen-activated protein kinase kinase 1 (Homo sapiens) (UniProt Q02750); assay: Competitive binding affinity to MEK1 (unknown origin) at 10 uM in presence of ATP relative to control
[10] = target: Glycogen synthase kinase-3 beta (Homo sapiens, UniProt P49841); assay: Competitive binding affinity to GSK3beta (unknown origin) at 10 uM in presence of ATP relative to control
[11] = system: Proto-oncogene tyrosine-protein kinase receptor Ret (Homo sapiens), P07949 [M918T]; assay: Competitive binding affinity to RET M918T mutant (unknown origin) at 10 uM in presence of ATP relative to control
Sequence of Proto-oncogene tyrosine-protein kinase receptor Ret (Homo sapiens), P07949 [M918T] (P07949 whole entry M918T): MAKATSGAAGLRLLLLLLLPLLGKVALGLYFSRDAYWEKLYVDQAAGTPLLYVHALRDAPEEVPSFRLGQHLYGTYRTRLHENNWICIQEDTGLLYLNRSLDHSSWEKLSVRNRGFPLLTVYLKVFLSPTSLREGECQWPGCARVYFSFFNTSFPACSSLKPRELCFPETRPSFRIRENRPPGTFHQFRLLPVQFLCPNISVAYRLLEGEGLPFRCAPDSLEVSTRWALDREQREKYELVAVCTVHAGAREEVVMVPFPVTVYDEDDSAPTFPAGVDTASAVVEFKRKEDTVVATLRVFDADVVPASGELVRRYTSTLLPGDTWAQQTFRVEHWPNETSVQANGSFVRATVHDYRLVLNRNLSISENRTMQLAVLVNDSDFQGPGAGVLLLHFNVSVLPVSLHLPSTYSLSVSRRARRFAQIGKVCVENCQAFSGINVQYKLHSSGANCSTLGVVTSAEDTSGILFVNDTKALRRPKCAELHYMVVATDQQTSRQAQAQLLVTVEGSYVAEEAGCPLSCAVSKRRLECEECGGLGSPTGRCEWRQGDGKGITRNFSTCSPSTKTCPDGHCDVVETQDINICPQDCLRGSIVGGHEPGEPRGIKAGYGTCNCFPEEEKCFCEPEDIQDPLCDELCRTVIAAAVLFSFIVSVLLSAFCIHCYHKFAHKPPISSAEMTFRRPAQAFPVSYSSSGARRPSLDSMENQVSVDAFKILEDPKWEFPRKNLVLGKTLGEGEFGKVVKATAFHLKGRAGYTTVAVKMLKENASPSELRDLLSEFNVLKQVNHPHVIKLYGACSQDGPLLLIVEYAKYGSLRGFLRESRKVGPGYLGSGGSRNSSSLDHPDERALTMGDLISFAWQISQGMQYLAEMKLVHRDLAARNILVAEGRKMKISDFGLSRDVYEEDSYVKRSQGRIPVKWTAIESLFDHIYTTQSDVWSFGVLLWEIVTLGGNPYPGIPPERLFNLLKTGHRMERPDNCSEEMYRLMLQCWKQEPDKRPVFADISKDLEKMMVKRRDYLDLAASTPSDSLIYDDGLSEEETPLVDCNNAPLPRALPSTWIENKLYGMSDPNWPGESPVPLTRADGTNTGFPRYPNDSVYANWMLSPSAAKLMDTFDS

Sequence of Cyclin-dependent kinase 8 (Homo sapiens) (P49336 whole entry): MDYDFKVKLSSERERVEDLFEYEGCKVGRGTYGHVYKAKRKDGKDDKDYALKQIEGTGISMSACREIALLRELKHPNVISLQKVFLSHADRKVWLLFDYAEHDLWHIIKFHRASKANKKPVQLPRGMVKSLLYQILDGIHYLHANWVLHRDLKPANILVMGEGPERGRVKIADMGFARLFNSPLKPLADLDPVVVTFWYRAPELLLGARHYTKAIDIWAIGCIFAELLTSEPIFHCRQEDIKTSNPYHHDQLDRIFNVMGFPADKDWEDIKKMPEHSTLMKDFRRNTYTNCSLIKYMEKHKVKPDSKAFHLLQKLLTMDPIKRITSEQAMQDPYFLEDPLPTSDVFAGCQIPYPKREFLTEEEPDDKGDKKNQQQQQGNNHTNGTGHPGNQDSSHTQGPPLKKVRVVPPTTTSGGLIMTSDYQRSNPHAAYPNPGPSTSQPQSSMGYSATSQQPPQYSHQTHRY
Sequence of NT-3 growth factor receptor (Homo sapiens) (Q16288 32-839 limits assumed): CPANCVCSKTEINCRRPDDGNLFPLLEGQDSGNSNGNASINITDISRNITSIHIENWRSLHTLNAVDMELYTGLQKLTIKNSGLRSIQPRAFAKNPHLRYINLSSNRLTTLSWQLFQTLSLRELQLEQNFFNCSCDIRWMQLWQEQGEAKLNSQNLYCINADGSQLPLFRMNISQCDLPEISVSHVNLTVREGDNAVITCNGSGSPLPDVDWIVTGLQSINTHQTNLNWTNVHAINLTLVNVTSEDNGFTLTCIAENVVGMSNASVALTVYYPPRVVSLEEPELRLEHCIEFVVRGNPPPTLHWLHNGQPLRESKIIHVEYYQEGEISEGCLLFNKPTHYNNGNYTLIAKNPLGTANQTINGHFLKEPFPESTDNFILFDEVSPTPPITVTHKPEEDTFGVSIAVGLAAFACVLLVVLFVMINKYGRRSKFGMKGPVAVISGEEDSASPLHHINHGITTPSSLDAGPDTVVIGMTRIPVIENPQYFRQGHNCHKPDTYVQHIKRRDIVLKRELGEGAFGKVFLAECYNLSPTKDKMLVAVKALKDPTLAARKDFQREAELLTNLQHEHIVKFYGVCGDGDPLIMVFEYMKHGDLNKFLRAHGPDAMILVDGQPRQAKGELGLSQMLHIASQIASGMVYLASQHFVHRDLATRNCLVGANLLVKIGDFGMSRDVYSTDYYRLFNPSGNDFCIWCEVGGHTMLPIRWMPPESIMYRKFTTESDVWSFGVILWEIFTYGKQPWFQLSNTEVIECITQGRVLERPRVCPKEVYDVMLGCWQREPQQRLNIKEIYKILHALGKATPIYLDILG
Sequence of Glycogen synthase kinase-3 beta (P49841 whole entry, looked up): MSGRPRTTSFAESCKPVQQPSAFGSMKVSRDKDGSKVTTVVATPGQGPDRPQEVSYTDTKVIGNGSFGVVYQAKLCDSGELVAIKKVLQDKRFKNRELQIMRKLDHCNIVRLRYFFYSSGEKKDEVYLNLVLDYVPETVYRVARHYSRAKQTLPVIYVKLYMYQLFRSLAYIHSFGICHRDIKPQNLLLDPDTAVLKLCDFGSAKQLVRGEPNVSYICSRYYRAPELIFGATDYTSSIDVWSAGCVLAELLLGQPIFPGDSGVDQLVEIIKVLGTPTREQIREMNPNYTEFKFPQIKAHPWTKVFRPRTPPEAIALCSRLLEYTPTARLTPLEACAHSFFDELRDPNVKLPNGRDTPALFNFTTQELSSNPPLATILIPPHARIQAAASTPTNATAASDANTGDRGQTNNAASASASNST
Sequence of Cyclin-dependent kinase 3 (Homo sapiens) (Q00526 whole entry, looked up): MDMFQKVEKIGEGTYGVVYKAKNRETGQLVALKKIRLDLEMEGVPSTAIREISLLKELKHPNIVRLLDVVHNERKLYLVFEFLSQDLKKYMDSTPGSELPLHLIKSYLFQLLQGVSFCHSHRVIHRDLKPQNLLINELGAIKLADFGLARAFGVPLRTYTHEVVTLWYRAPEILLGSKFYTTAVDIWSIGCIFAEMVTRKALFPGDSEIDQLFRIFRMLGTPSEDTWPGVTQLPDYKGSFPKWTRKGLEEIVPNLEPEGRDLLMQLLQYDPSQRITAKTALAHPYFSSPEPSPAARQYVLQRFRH
Sequence of Dual specificity mitogen-activated protein kinase kinase 1 (Homo sapiens) (Q02750 whole entry): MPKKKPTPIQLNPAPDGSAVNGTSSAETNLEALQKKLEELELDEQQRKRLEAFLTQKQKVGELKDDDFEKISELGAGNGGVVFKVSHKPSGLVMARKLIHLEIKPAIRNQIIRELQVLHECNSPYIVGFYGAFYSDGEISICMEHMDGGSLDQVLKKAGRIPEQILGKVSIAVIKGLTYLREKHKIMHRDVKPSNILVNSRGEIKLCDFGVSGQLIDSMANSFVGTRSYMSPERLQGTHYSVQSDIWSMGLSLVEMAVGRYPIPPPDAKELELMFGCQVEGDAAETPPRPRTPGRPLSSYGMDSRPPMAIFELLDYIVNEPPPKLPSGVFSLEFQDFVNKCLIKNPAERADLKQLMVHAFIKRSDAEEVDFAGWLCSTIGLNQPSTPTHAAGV
Sequence of Serine/threonine-protein kinase PLK1 (Homo sapiens) (P53350 whole entry): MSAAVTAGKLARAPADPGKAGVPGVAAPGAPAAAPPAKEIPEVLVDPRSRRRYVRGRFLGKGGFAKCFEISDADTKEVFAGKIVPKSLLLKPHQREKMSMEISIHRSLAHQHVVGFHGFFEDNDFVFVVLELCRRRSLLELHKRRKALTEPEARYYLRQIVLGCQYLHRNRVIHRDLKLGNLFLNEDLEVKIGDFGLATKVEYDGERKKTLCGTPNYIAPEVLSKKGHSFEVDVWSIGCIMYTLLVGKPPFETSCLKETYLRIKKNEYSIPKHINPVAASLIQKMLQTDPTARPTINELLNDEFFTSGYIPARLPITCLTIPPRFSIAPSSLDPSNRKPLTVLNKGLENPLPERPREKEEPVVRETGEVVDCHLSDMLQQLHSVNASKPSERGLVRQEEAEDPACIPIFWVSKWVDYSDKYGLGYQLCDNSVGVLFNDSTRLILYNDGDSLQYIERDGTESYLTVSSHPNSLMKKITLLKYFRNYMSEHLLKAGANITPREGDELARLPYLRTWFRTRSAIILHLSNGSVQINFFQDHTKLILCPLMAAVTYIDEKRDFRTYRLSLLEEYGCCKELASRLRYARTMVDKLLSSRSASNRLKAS

inhibition [1] [%]	inhibition [2] [%]	inhibition [3] [%]	inhibition [4] [%]	inhibition [5] [%]	inhibition [6] [%]	inhibition [7] [%]	inhibition [8] [%]	inhibition [9] [%]	inhibition [10] [%]	inhibition [11] [%]	Compound
94	< 50	99	< 50	99							O[C@H]1CC[C@H](Nc2nccc(-c3n[nH]c4ccccc34)n2)CC1
96				92							N[C@H]1CC[C@H](Nc2nccc(-n3nnc4ccccc43)n2)CC1
	< 50	< 50	< 50		< 50	< 50	94	< 50	< 50	< 50	O[C@H]1CC[C@H](Nc2nccc(-n3ccc4ccccc43)n2)CC1
86				< 50							O=C([C@H]1CC[C@H](Nc2nccc(-n3nnc4ccccc43)n2)CC1)N1CCOCC1
	< 50	< 50	< 50		75	82	100	< 50	100	< 50	O[C@H]1CC[C@H](Nc2nccc(-n3nnc4ccccc43)n2)CC1
	< 50	< 50	< 50		< 50	< 50	96	< 50	82	< 50	O[C@H]1CC[C@H](Nc2nccc(-n3ncc4ccccc43)n2)CC1
									> 85		CS(=O)(=O)CCCOc1cccc2c1ccn2-c1ccnc(N[C@H]2CC[C@H](C(=O)N3CCC(O)CC3)CC2)n1
